# Assay results from publication PMC12040169 (PLOS Biology, 2025).
# Assay: in vitro
# Conditions: human, hela cells, % viability
row,SMILES,"viability at 28.5 h, 10 µM [%]"
1,O=S(=O)(NC1c2cccc3cccc(c23)C1Sc1ncccn1)c1ccc(Cl)cc1 (centres unmarked) [CBK264638],94.3
2,CC(C)NC(=O)C1CC2CCC1CC21NC(=O)c2ccccc2O1 (centres unmarked) [CBK284353],83.5
3,CC(C(=O)c1ccc(-c2ccccc2F)cc1)N1CCN(c2ccc(C#N)cc2)CC1 (centres unmarked) [CBK074706],92
4,O=C(c1cc(F)c(F)cc1F)N1CCC2(CCCN(CCCn3c(=O)[nH]c4ccccc43)C2)C1 (centres unmarked) [CBK132004],84.9
5,O=C(O)CSC1c2ccccc2Oc2ccc(F)cc21 (centres unmarked) [CBK266462],98
6,CC(C)CC1C(=O)NCCN1Cc1ccccc1 (centres unmarked) [CBK005336],92
7,CCOC(=O)c1cccc(-n2ncc(-c3ccc(F)cc3)n2)c1 [CBK112908],94.1
8,Cc1nc2ccc(C(=O)NC3=NN(c4ccccc4)C(=O)C3)cn2c1N(C)C(=O)CCc1ccccc1 [CBK146817],89.8
9,COC(=O)C1=C(Cn2ccc(C(F)(F)F)n2)NC(=O)NC1c1cc(C)ccc1C (centres unmarked) [CBK268792],105
10,O=C(NC1CCCCC1)c1ccc(-n2ccnc2)c(-n2cccc2)c1 [CBK285365],107
11,CCOC(=O)NC(Nc1cccc(C)n1)(C(F)(F)F)C(F)(F)F [CBK261343],115
12,CCCCCCn1nc(C(=O)NCC(=O)O)c2ccccc2c1=O [CBK297491],97.3
13,CCOc1cc(CNc2nc[nH]n2)cc(Cl)c1OCc1ccccc1F [CBK288088],103
14,C/C(=N\NC(=O)Cc1ccc([N+](=O)[O-])cc1[N+](=O)[O-])c1ccccc1O [CBK261175],88.8
15,O=C(NCCc1ccccn1)c1ccc(Cl)cc1Cl [CBK015946],81.4
16,CNC(=O)CN1CCC[C@@H]2NC(=O)COc3ccccc3C(=O)N[C@@H]3CCOC[C@@H]3C/C=C/C[C@@H]21 [CBK292040],100
17,CC(C)N1CCC(=NNC(=O)c2cc(O)c(O)c(O)c2)CC1 [CBK262626],117
18,CC(=O)NCC(=O)N1CCC[C@@H]2[C@H]1CCCCc1ccccc1OCC(=O)N2C [CBK292011],117
19,CCC(C)c1ccc(NC(=O)CSc2nnnn2C)cc1 (centres unmarked) [CBK058085],122
20,c1ccc2cc(CCN3CCN(c4nccnc4OCCN4CCOCC4)CC3)ccc2c1 [CBK082911T],87.6
21,CC1(Cn2ccnc2-c2ccccc2C(=O)O)CCCO1 (centres unmarked) [CBK307439],88.8

row,SMILES,"viability at 28.5 h, 10 µM [%]"
1,O=C(CCS(=O)(=O)c1ccc(Br)cc1)OCC(=O)c1ccccc1 [CBK021886],104
2,COc1ccc(C2(O)CCN(CC(O)c3ccc4c(c3)CCC4)CC2)cc1 (centres unmarked) [CBK286334],95.9
3,CCOC(=O)C1CCN(CCOc2ccc3ccccc3c2)CC1 [CBK270128C],95.4
4,COC(=O)[C@@H](NC(=O)C1CCN(C(=O)OCc2ccccc2)CC1)c1ccccc1 [CBK081468],107
5,Cc1cnc(CNC(=O)Cn2nnc(-c3ccc(CN4CCC(C)CC4)cc3)n2)cn1 [CBK137067C],101
6,Cn1c(SCC(=O)Nc2ccnc3ccccc23)nnc1-c1ccncc1 [CBK267867],105
7,O=C(CN1CCN(C(=O)C2COc3ccccc3O2)CC1)Nc1ccc2c(c1)OCCO2 (centres unmarked) [CBK074777],111
8,O=C(O)CCNC(=O)c1ccc(C#CC2(O)CCCCC2)cc1 [CBK286554],93.2
9,COc1ccccc1-c1nc(C2CCCN2C(=O)N[C@@H](C)c2ccccc2)n2ccccc12 (some centres unmarked) [CBK046625],109
10,COc1ccc(S(=O)(=O)N(C)CC(=O)Nc2ccc(C(N)=O)cc2)cc1Cl [CBK267891],109
11,O=C(OCCc1ccncc1)N1CCc2ccccc21 [CBK200140],94.9
12,CCn1c(Cc2c(C)[nH]c3ccccc23)nnc1SCC(=O)NC12CC3CC(CC(C3)C1)C2 [CBK267529],89.3
13,O=c1c2snc(-c3ccc(F)cc3)c2ncn1C1CC1 [CBK282859],76.9
14,COc1ccc(CNc2nc[nH]n2)c(OC)c1OC [CBK288129],103
15,O=C(COc1ccccc1[N+](=O)[O-])Nc1ccc(Br)cc1C(=O)O [CBK266008],84.9
16,FC(F)(F)c1nc2ccccc2nc1Sc1ccccn1 [CBK093781],89
17,S=c1nccc(N2CCC(Cc3ccccc3)CC2)[nH]1 [CBK288361],112
18,COc1ccccc1C(CC(=O)O)c1ccc2c(c1)OCO2 (centres unmarked) [CBK286971],91.2
19,O=S(=O)(Nc1nn(Cc2ccc(C(F)(F)F)cc2)c2ccccc12)c1cccc2nsnc12 [CBK048086],94.8
20,CCNC(=S)N[C@@H]1CC[C@@]2(Cc3ccc(OC)c(OC)c3)CCN(C)[C@H]2C1 [CBK023811],94.5
21,CN(C)c1ccc(/C=C/CN2CCN(c3ccc([N+](=O)[O-])cc3)CC2)cc1 [CBK261904],96.9

row,SMILES,"viability at 28.5 h, 10 µM [%]"
1,CCC(C)C(=O)O[C@H]1C[C@@H](C)C=C2C=C[C@H](C)[C@H](CC[C@@H]3C[C@@H](O)CC(=O)O3)[C@H]21 (some centres unmarked) [CBK011646],85.2
2,O=C(CCCCCN1C(=O)CCC1=O)Nc1nc[nH]n1 [CBK267682],103
3,Cc1ccc(CN(Cc2c[nH]cn2)C2CC(C)(C)NC(C)(C)C2)o1 [CBK283175],91
4,Cc1cc(C(=O)N(Cc2ccccc2)c2ccccc2)no1 [CBK268131],94.2
5,Nc1ncncc1-c1noc([C@@H]2CCCN2C2CCOCC2)n1 [CBK288932],90.7
6,COc1ccc(F)c(CN(CC(C)(C)CN)C(=O)Nc2ccccc2C(C)(C)C)c1 [CBK002478C],98.1
7,CC(C)(C)OC(=O)N(Cc1cccs1)S(C)(=O)=O [CBK019338],94.1
8,Cc1ccc2[nH]cc(CCN3CCC(C(=O)NC(=O)Nc4ccccc4F)CC3)c2c1 [CBK034974],93
9,COc1ccc(C(N)C2(O)CCN(Cc3ccccc3)CC2)cc1 (centres unmarked) [CBK091386],107
10,O=C(CCn1c(C(F)F)cc2cccnc21)NC1CCCC1 [CBK285063],95.5
11,O=C(CCc1ccc(F)cc1)N1CCCC(c2cccc(Cc3ccccc3F)n2)C1 (centres unmarked) [CBK286512],91.2
12,CCc1c(C(=O)Nc2ccc(C(F)(F)F)cc2)cnc2ncnn12 [CBK291244],90.4
13,COc1ccc2c(c1)C1(CC(=O)N(CC(=O)N(C)C)C1=O)C(=O)N2CCCN(C)S(C)(=O)=O (centres unmarked) [CBK075889],118
14,COc1ccc(-c2cc(N3CCC(N4CCCCC4)CC3)ncn2)cc1OC [CBK037752],90
15,O=c1cc(CO)oc(CN2CCSCC2)c1O [CBK288404],89
16,CS(=O)(=O)N1CCCc2cc(-c3csc(-c4cnccn4)n3)ccc21 [CBK305239],95.4
17,O=C(CCn1c(C(F)(F)F)cc2cccnc21)N1CCOCC1 [CBK284869],96.4
18,O=C(C1=C(O)C(=O)N(CCN2CCOCC2)C1c1ccccn1)c1cc2ccccc2o1 (centres unmarked) [CBK269576],107
19,Cc1cc(C)nc(N2CCC(CC(=O)NCCOc3cccc(F)c3)CC2)n1 [CBK285996],112
20,COc1cc(C2NC(=O)NC(O)(C(F)(F)F)C2C(=O)c2ccccc2)ccc1OCc1ccccc1 (centres unmarked) [CBK264957],114
21,O=C(Nc1cc(N2CCNCC2)c2occc2c1)c1cccc(C(F)(F)F)c1 [CBK061762C],86.5

row,SMILES,"viability at 28.5 h, 10 µM [%]"
1,CN(C)/C=N/c1nc2c(ccn2C2CC(O)C(CO)O2)c(=O)[nH]1 (centres unmarked) [CBK201276],107
2,COc1cc(Nc2cc(-c3ccccc3N(C)C)ncn2)cc(OC)c1OC [CBK090702],64.2
3,CC1CN(Cc2nc3c(c(=O)n(C)c(=O)n3C)n2CCN2CCOCC2)CC(C)O1 (centres unmarked) [CBK269340],93.3
4,CSc1ncc(Cl)c(C(=O)Nc2ccc(S(=O)(=O)N3CCOCC3)cc2)n1 [CBK268775],106
5,Cc1cc(CN(C)Cc2cnn(Cc3ccccc3)c2C)n[nH]1 [CBK283017],94.6
6,O=C(O)c1ccc(C(=O)O)c(-c2ccccc2)c1 [CBK261102],104
7,Cn1cc(CC2CCN(Cc3ccc(Oc4cnccn4)cc3)C2)cn1 (centres unmarked) [CBK304188],108
8,COc1cc(F)cc(OC2CCNCC2)c1NC(=O)C1CCC1 [CBK045912T],92.3
9,Cc1nc(N2CCOCC2)nc(Nc2ccc(Cl)cc2)c1[N+](=O)[O-] [CBK264685],87.5
10,CC(C)(C)C(=O)Nc1ccc(F)c(C(=O)N2CCc3[nH]ncc3C2)c1 [CBK305303],104
11,COc1cc2c(cc1NC(=O)CSc1nc3ccccc3o1)oc1ccccc12 [CBK265154],105
12,CCC(c1ccccc1)N1CCN(Cc2noc(C)n2)CC1 (centres unmarked) [CBK305084],90.3
13,Cc1cc(C(=O)Nc2cccc(-c3nc4cc(Cl)ccc4o3)c2C)ccc1[N+](=O)[O-] [CBK262949],91.8
14,Cn1nc(C(=O)NCC(c2ccccc2Cl)N2CCOCC2)ccc1=O (centres unmarked) [CBK305886],87.3
15,CC(C)(C)NCC(O)COc1c(F)cc(Br)cc1F (centres unmarked) [CBK020879C],107
16,CCCC(=O)NC(c1ccc(OC)cc1)c1cc(Cl)c2cccnc2c1O (centres unmarked) [CBK293944],87.4
17,CCOC(=O)C(CNC(=O)c1c(C)nn(C)c1C)Cc1ccccc1 (centres unmarked) [CBK305276],90
18,CC(=O)NC1(c2ccccc2)CCN(Cc2ccnn2C)CC1 [CBK281805],87.8
19,Cc1cc(C)nc(N(C#N)CC(=O)N2c3ccccc3CCc3ccccc32)n1 [CBK266509],112
20,COc1ccc(N2CCN(c3c(C)c(C)nc4cc(-c5nccn5C)nn34)CC2)cc1 [CBK286178],85.1
21,FC(F)(F)Sc1ccc(COc2cccc3cccnc23)cc1 [CBK002776],94.5

# Same assay, conditions: human, hela cells, % viability, bulk resorufin, single well
row,SMILES,"viability at 28.5 h, 10 µM [%]"
1,CC(=O)c1ccc(-c2ccc3c(c2)COC2(CCN(C(C)=O)CC2)O3)s1 [CBK060967],109
2,CC(C)=C1C2CCC1C(C(=O)N1CCC3(CC1)OCCO3)C2C(=O)O (centres unmarked) [CBK286937],92.7
